# Patent US20240425500A1 (priority 2021, published 2024)
# Columns and labels:
# Phytophthora infestans = test: whole plant or invertebrate; format: in vivo; conditions: in Solanum lycopersicum, foliar, read-out: control of Phytophthora infestans compared to untreated control
# Plasmopara viticola = test: whole plant or invertebrate; format: in vivo; conditions: foliar, read-out: control of Plasmopara viticola compared to untreated control
# Pythium ultimum = Pythium ultimum / liquid culture (seedling damping off); format: cell-based; conditions: Globisporangium ultimum, liquid culture in PDB, 24 °C, 2-3 days after application, read-out: control of Pythium ultimum (inhibition of growth, photometric) compared to untreated control
# Protocol: Pythium ultimum/Liquid Culture (Seedling Damping Off):
# Mycelia fragments and oospores of a newly grown liquid culture of the fungus are directly mixed into nutrient broth (PDB potato dextrose broth). After placing a (DMSO) solution of test compound into a microtiter plate (96-well format), the nutrient broth containing the fungal mycelia/spore mixture is added. The test plates are incubated at 24° C. and the inhibition of growth is determined photometrically 2-3 days after application.
Compound,pest or weed control at 200 ppm (Phytophthora infestans) [%],pest or weed control at 200 ppm (Plasmopara viticola) [%],inhibition at 20 ppm (Pythium ultimum) [%]
"COC(=O)Nc1ccc(-c2cnc3ccc(C(=O)N(C)c4ccnc(OC)c4)cn23)cc1 [Compound 26, methyl N-[4-[6-[(2-methoxy-4-pyridyl)-methyl-carbamoyl]imidazo[1,2-a]pyridin-3-yl]phenyl]carbamate]",≥ 80,≥ 80,≥ 80
"COC(=O)Nc1ccc(-c2cnc3c(NC(C)=O)cc(C(=O)N(C)c4ccc(F)c(OC)c4)cn23)cn1 [Compound 169, methyl N-[5-[8-acetamido-6-[(4-fluoro-3-methoxy-phenyl)-methyl-carbamoyl]imidazo[1,2-a]pyridin-3-yl]-2-pyridyl]carbamate]",≥ 80,≥ 80,≥ 80
"COC(=O)Nc1ccc(-c2cnc3ccc(C(=O)N(C)c4ccc(Cl)cc4)cn23)cn1 [Compound 4, methyl N-[5-[6-[(4-chlorophenyl)-methyl-carbamoyl]imidazo[1,2-a]pyridin-3-yl]-2-pyridyl]carbamate]",≥ 80,≥ 80,≥ 80
"CCN(C(=O)c1ccc2ncc(-c3ccc(NC(=O)OC)nc3)n2c1)c1ccc(F)c(OC)c1 [Compound 178, methyl N-[5-[6-[ethyl-(4-fluoro-3-methoxy-phenyl)carbamoyl]imidazo [1,2-a]pyridin-3-yl]-2-pyridyl]carbamate]",≥ 80,≥ 80,≥ 80
"COC(=O)Nc1ccc(-c2cnc3ccc(C(=O)N(C)c4ccccc4)cn23)cn1 [Compound 61, methyl N-[5-[6-[methyl(phenyl)carbamoyl]imidazo[1,2-a]pyridin-3-yl]-2-pyridyl]carbamate]",,≥ 80,≥ 80
"COCCN(C(=O)c1cc(C)c2ncc(-c3ccc(NC(=O)OC)nc3)n2c1)c1ccc(F)c(OC)c1 [Compound 177, methyl N-[5-[6-[(4-fluoro-3-methoxy-phenyl)-(2-methoxyethyl)carbamoyl]-8-methyl-imidazo[1,2-a]pyridin-3-yl]-2-pyridyl]carbamate]",≥ 80,≥ 80,
"COC(=O)Nc1ccc(-c2cnc3ccc(C(=O)N(C)c4ccc(C)cc4)cn23)cn1 [Compound 64, methyl N-[5-[6-[methyl (p-tolyl)carbamoyl]imidazo [1,2-a]pyridin-3-yl]-2-pyridyl]carbamate]",,≥ 80,≥ 80
"CCC(=O)Nc1ccc(-c2cnc3ccc(C(=O)N(C)c4ccc(F)c(C)c4)cn23)cn1 [Compound 78, N-(4-fluoro-3-methyl-phenyl)-N-methyl-3-[6-(propanoylamino)-3-pyridyl]imidazo[1,2-a]pyridine-6-carboxamide]",,≥ 80,≥ 80
"COC(=O)Nc1ccc(-c2cnc3ccc(C(=O)N(C)c4cccc(OC(F)F)c4)cn23)cc1 [Compound 9, methyl N-[4-[6-[[3-(difluoromethoxy)phenyl]-methyl-carbamoyl]imidazo[1,2-a]pyridin-3-yl]phenyl]carbamate]",,≥ 80,≥ 80
"CC(=O)Nc1ccc(-c2cnc3ccc(C(=O)N(C)c4ccc(Cl)cc4)cn23)cc1 [Compound 1, 3-(4-acetamidophenyl)-N-(4-chlorophenyl)-N-methyl-imidazo[1,2-a]pyridine-6-carboxamide]",,≥ 80,≥ 80
"CCN(C(=O)c1ccc2ncc(-c3ccc(NC(=O)OC)nc3)n2c1)c1ccccc1 [Compound 137, methyl N-[5-[6-[ethyl(phenyl)carbamoyl]imidazo[1,2-a]pyridin-3-yl]-2-pyridyl]carbamate]",,≥ 80,≥ 80
"CCCN(C(=O)c1ccc2ncc(-c3ccc(NC(=O)OC)nc3)n2c1)c1ccc(Cl)c(C)c1 [Compound 126, methyl N-[5-[6-[(4-chloro-3-methyl-phenyl)-propyl-carbamoyl]imidazo[1,2-a]pyridin-3-yl]-2-pyridyl]carbamate]",,≥ 80,≥ 80
